# According to patent US11572366B2, “Heterocyclic compounds as immunomodulators” (Incyte Corporation, priority 2015, dated 2023):
# Target: PD-1/PD-L1 protein/protein interaction (Homo sapiens (Human), UniProt Q9NZQ7)
# Test: PD-1/PD-L1 Homogeneous Time-Resolved Fluorescence (HTRF) binding assay
# Settings: recombinant human PD-L1 (19-238) His-tag 10 nM, human PD-1 (25-167) Fc tag 3 nM, 25° C., PBS pH 7.4
# Protocol: Example A. PD-1/PD-L Homogeneous Time-Resolved Fluorescence (HTRF) Binding Assay
# The assays were conducted in a standard black 384-well polystyrene plate with a final volume of 20 μL. Inhibitors were first serially diluted in DMSO and then added to the plate wells before the addition of other reaction components. The final concentration of DMSO in the assay was 1%. The assays were carried out at 25° C. in the PBS buffer (pH 7.4) with 0.05% Tween-20 and 0.1% BSA. Recombinant human PD-L1 protein (19-238) with a His-tag at the C-terminus was purchased from AcroBiosystems (PD1-H5229). Recombinant human PD-1 protein (25-167) with Fc tag at the C-terminus was also purchased from AcroBiosystems (PD1-H5257). PD-L1 and PD-1 proteins were diluted in the assay buffer and 10 μL was added to the plate well. Plates were centrifuged and proteins were preincubated with inhibitors for 40 minutes. The incubation was followed by the addition of 10 μL of HTRF detection buffer supplemented with Europium cryptate-labeled anti-human IgG (PerkinElmer-AD0212) specific for Fe and anti-His antibody conjugated to SureLight®-Allophycocyanin (APC, PerkinElmer-AD0059H). After centrifugation, the plate was incubated at 25° C. for 60 min. before reading on a PHERAstar FS plate reader (665 nm/620 nm ratio). Final concentrations in the assay were—3 nM PD1, 10 nM PD-L1, 1 nM europium anti-human IgG and 20 nM anti-His-Allophycocyanin.IC50 determination was performed by fitting the curve of percent control activity versus the log of the inhibitor concentration using the GraphPad Prism 5.0 software.
# Chain of PD-1/PD-L1 protein/protein interaction (Q9NZQ7 19-238): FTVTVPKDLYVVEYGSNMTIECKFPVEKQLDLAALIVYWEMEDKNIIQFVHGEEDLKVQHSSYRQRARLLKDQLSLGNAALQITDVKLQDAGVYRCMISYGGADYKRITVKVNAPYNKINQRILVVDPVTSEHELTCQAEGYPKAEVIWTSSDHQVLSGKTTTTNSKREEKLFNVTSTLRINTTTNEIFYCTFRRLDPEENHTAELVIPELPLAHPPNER
row,IC50 [nM],SMILES
1,10 to 100,"Cc1c(-c2ccccc2)cccc1-c1cc2ccc(CNCCO)nc2o1 [Example 1, 2-({[2-(2-methylbiphenyl-3-yl)furo[2,3-b]pyridin-6-yl]methyl}amino)ethanol]"
2,100 to 1000,"Cc1c(-c2ccccc2)cccc1-c1cc2ccc(CN3CCCC[C@H]3C(=O)O)nc2o1 [Example 2, (2S)-1-{[2-(2-methylbiphenyl-3-yl)furo[2,3-b]pyridin-6-yl]methyl}piperidine-2-carboxylic Acid]"
3,10 to 100,"Cc1c(-c2ccccc2)cccc1-c1cc2nc(CNCCO)cc(C)c2o1 [Example 3, 2-({[7-methyl-2-(2-methylbiphenyl-3-yl)furo[3,2-b]pyridin-5-yl]methyl}amino)ethanol]"
4,10 to 100,"Cc1c(-c2ccccc2)cccc1-c1cc2nc(CN3CCCC[C@H]3C(=O)O)cc(C)c2o1 [Example 4, (2S)-1-{[7-methyl-2-(2-methylbiphenyl-3-yl)furo[3,2-b]pyridin-5-yl]methyl}piperidine-2-carboxylic Acid]"
5,10 to 100,"Cc1c(-c2ccccc2)cccc1-c1cc2cc(CNCCO)nc(C)c2o1 [Example 5, 2-({[7-methyl-2-(2-methylbiphenyl-3-yl)furo[2,3-c]pyridin-5-yl]methyl}amino)ethanol]"
6,10 to 100,"Cc1c(-c2ccccc2)cccc1-c1cc2cc(CN3CCCC[C@H]3C(=O)O)nc(C)c2o1 [Example 6, (2S)-1-{[7-methyl-2-(2-methylbiphenyl-3-yl)furo[2,3-c]pyridin-5-yl]methyl}piperidine-2-carboxylic Acid]"
7,10 to 100,"Cc1c(-c2ccccc2)cccc1-c1nc2cc(CN3CCCC[C@H]3C(=O)O)ccc2o1 [Example 7, (2S)-1-{[2-(2-methylbiphenyl-3-yl)-1,3-benzoxazol-5-yl]methyl}piperidine-2-carboxylic Acid]"
8,≤ 10,"Cc1c(-c2ccccc2)cccc1-c1nc2cc(CNCCO)ccc2o1 [Example 8, 2-({[2-(2-methylbiphenyl-3-yl)-1,3-benzoxazol-5-yl]methyl}amino)ethanol]"
9,100 to 1000,"Cc1c(-c2ccccc2)cccc1-c1cc2cc(CN3CCCC[C@H]3C(=O)O)cnc2o1 [Example 9, (2S)-1-{[2-(2-methylbiphenyl-3-yl)furo[2,3-b]pyridin-5-yl]methyl}piperidine-2-carboxylic Acid]"
10,10 to 100,"Cc1c(-c2ccccc2)cccc1-c1cc2cc(CNCCO)cnc2o1 [Example 10, 2-({[2-(2-methylbiphenyl-3-yl)furo[2,3-b]pyridin-5-yl]methyl}amino)ethanol]"
11,≤ 10,"Cc1c(-c2ccccc2)cccc1-c1nc2cc(CN3CCCC[C@H]3C(=O)O)cc(C)c2o1 [Example 11, (2S)-1-{[7-methyl-2-(2-methylbiphenyl-3-yl)-1,3-benzoxazol-5-yl]methyl}piperidine-2-carboxylic Acid]"
12,≤ 10,"Cc1c(-c2ccccc2)cccc1-c1nc2cc(CNCCO)cc(C)c2o1 [Example 12, 2-({[7-methyl-2-(2-methylbiphenyl-3-yl)-1,3-benzoxazol-5-yl]methyl}amino)ethanol]"
13,10 to 100,"Cc1cc(CN2CCCC[C@H]2C(=O)O)cc2nc(-c3cccc(-c4ccccc4)c3C#N)oc12 [Example 13, (2S)-1-{[2-(2-cyanobiphenyl-3-yl)-7-methyl-1,3-benzoxazol-5-yl]methyl}piperidine-2-carboxylic Acid]"
14,≤ 10,"Cc1cc(CNCCO)cc2nc(-c3cccc(-c4ccccc4)c3C#N)oc12 [Example 14, 3-(5-{[(2-hydroxyethyl)amino]methyl}-7-methyl-1,3-benzoxazol-2-yl)biphenyl-2-carbonitrile]"
15,10 to 100,"Cc1c(-c2ccc3c(c2)OCCO3)cccc1-c1nc2cc(CN3CCCC[C@H]3C(=O)O)cc(C)c2o1 [Example 15, (2S)-1-({2-[3-(2,3-dihydro-1,4-benzodioxin-6-yl)-2-methylphenyl]-7-methyl-1,3-benzoxazol-5-yl}methyl)piperidine-2-carboxylic Acid]"
16,≤ 10,"Cc1c(-c2ccc3c(c2)OCCO3)cccc1-c1nc2cc(CNCCO)cc(C)c2o1 [Example 16, 2-[({2-[3-(2,3-dihydro-1,4-benzodioxin-6-yl)-2-methylphenyl]-7-methyl-1,3-benzoxazol-5-yl}methyl)amino]ethanol]"
17,10 to 100,"Cc1cc(CN2CCCC[C@H]2C(=O)O)cc2nc(-c3cccc(-c4ccc5c(c4)OCCO5)c3C#N)oc12 [Example 17, (2S)-1-({2-[2-cyano-3-(2,3-dihydro-1,4-benzodioxin-6-yl)phenyl]-7-methyl-1,3-benzoxazol-5-yl}methyl)piperidine-2-carboxylic Acid]"

row,IC50 [nM],SMILES
1,≤ 10,"Cc1cc(CNCCO)cc2nc(-c3cccc(-c4ccc5c(c4)OCCO5)c3C#N)oc12 [Example 18, 2-(2,3-dihydro-1,4-benzodioxin-6-yl)-6-(5-{[(2-hydroxyethyl)amino]methyl}-7-methyl-1,3-benzoxazol-2-yl)benzonitrile]"
2,100 to 1000,"Cc1c(-c2ccccc2)cccc1-c1nc2cc(CN3CCCC[C@H]3C(=O)O)ccc2s1 [Example 19, (2S)-1-{[2-(2-methylbiphenyl-3-yl)-1,3-benzothiazol-5-yl]methyl}piperidine-2-carboxylic Acid]"
3,100 to 1000,"Cc1c(-c2ccccc2)cccc1-c1cc2nc(CN3CCCC[C@H]3C(=O)O)ccc2o1 [Example 20, (2S)-1-{[2-(2-methylbiphenyl-3-yl)furo[3,2-b]pyridin-5-yl]methyl}piperidine-2-carboxylic Acid]"
4,10 to 100,"Cc1c(-c2ccccc2)cccc1-c1cc2nc(CNCCO)ccc2o1 [Example 21, 2-({[2-(2-methylbiphenyl-3-yl)furo[3,2-b]pyridin-5-yl]methyl}amino)ethanol]"
5,10 to 100,"Cc1c(-c2ccccc2)cccc1-c1nc2c(C)cc(CN3CCCC[C@H]3C(=O)O)cc2s1 [Example 22, (2S)-1-{[4-methyl-2-(2-methylbiphenyl-3-yl)-1,3-benzothiazol-6-yl]methyl}piperidine-2-carboxylic Acid]"
6,10 to 100,"Cc1c(-c2ccccc2)cccc1-c1nc2c(C)cc(CNCCO)cc2s1 [Example 23, 2-({[4-methyl-2-(2-methylbiphenyl-3-yl)-1,3-benzothiazol-6-yl]methyl}amino)ethanol]"
7,10 to 100,"Cc1c(-c2ccccc2)cccc1-c1cc2nc(CNCCO)cnc2o1 [Example 24, 2-({[6-(2-methylbiphenyl-3-yl)furo[2,3-b]pyrazin-2-yl]methyl}amino)ethanol]"
8,100 to 1000,"Cc1c(-c2ccccc2)cccc1-c1cc2nc(CN3CCCC[C@H]3C(=O)O)cnc2o1 [Example 25, (2S)-1-{[6-(2-methylbiphenyl-3-yl)furo[2,3-b]pyrazin-2-yl]methyl}piperidine-2-carboxylic Acid]"
9,≤ 10,"Cc1c(-c2ccccc2)cccc1-c1nc2cc(CN3CCCC[C@H]3C(=O)O)c(OCC#N)cc2o1 [Example 26, (2S)-1-{[6-(cyanomethoxy)-2-(2-methylbiphenyl-3-yl)-1,3-benzoxazol-5-yl]methyl}piperidine-2-carboxylic Acid]"
10,≤ 10,"Cc1c(-c2ccccc2)cccc1-c1nc2cc(CNCCO)c(OCC#N)cc2o1 [Example 27, {[5-{[(2-hydroxyethyl)amino]methyl}-2-(2-methylbiphenyl-3-yl)-1,3-benzoxazol-6-yl]oxy}acetonitrile]"
11,≤ 10,"Cc1c(-c2ccccc2)cccc1-c1nc2cc(CN3CCCC[C@H]3C(=O)O)c(OCCCC#N)cc2o1 [Example 28, (2S)-1-{[6-(3-cyanopropoxy)-2-(2-methylbiphenyl-3-yl)-1,3-benzoxazol-5-yl]methyl}piperidine-2-carboxylic Acid]"
12,10 to 100,"Cc1c(-c2ccccc2)cccc1-c1nc2cc(CNCCO)c(OCc3cccc(C#N)c3)cc2o1 [Example 29, 3-({[5-{[(2-hydroxyethyl)amino]methyl}-2-(2-methylbiphenyl-3-yl)-1,3-benzoxazol-6-yl]oxy}methyl)benzonitrile]"
13,≤ 10,"Cc1c(-c2ccccc2)cccc1-c1nc2cc(CNCCO)c(OCc3ccccn3)cc2o1 [Example 30, 2-({[2-(2-methylbiphenyl-3-yl)-6-(pyridin-2-ylmethoxy)-1,3-benzoxazol-5-yl]methyl}amino)ethanol]"
14,≤ 10,"COc1cc2oc(-c3cccc(-c4ccccc4)c3C)nc2cc1CNCCO [Example 31, 2-({[6-methoxy-2-(2-methylbiphenyl-3-yl)-1,3-benzoxazol-5-yl]methyl}amino)ethanol]"
15,≤ 10,"Cc1c(-c2ccccc2)cccc1-c1nc2cc(CNCCO)c(OCCN3CCOCC3)cc2o1 [Example 32, 2-({[2-(2-methylbiphenyl-3-yl)-6-(2-morpholin-4-ylethoxy)-1,3-benzoxazol-5-yl]methyl}amino)ethanol]"
16,10 to 100,"Cc1c(-c2ccccc2)cccc1-c1nc2cc(CNCCO)ncc2o1 [Example 33, 2-({[2-(2-methylbiphenyl-3-yl)[1,3]oxazolo[5,4-c]pyridin-6-yl]methyl}amino)ethanol]"
17,10 to 100,"Cc1c(-c2ccccc2)cccc1-c1nc2cc(CNCCO)c(OCCCC#N)c(C)c2o1 [Example 34, 4-{[5-{[(2-hydroxyethyl)amino]methyl}-7-methyl-2-(2-methylbiphenyl-3-yl)-1,3-benzoxazol-6-yl]oxy}butanenitrile]"
